Drawing on patent US9115145B2, “Tocotrienol derivatives and associated methods” (FIRST TECH INTERNATIONAL LIMITED, priority 2011, dated 2015), this text covers IC50 for one compound.

This experiment concerns MDA-MB-231 human breast cancer cell line. Put plainly: MTT assay of MDA-MB-231 cells. It counts as cell-based. The settings on record: media containing 5% fetal bovine serum. As for the experimental part:
MDA-MB-231 and MCF7 cells were plated at a density of 8×10^3 cells/well and 10^4 cells/well in 96-well culture plates, respectively. The compounds were fed in serum free media containing 5% and 1% fetal bovine serum for MDA-MB-231 and MCF7 cells, respectively.

pIC50: −log10 of the molar value.

Usually pIC50 stands for the IC50 on a negative log10 scale, so that one unit is a factor of ten. The low end stands for a large IC50, the high end for a small IC50. In the case of `CC(C)=CCC/C(C)=C/CC/C(C)=C/CC[C@]1(C)CCc2cc(O)c(C)c(C)c2O1` [Compound 1, γ-tocotrienol, reference compound], the pIC50 was 5.03.
